Columns and labels:
[1] = target: Vascular endothelial growth factor receptor 2 (Homo sapiens, UniProt P35968)
[2] = Inhibition of VEGF-mediated proliferation of HMVEC after 72 hrs; assay type: functional, cell-based; conditions: Homo sapiens
[3] = target: Platelet-derived growth factor receptor beta (Homo sapiens, UniProt P09619); assay: Inhibition of human recombinant PDGFRbeta
[4] = target: Fibroblast growth factor receptor 1 (Homo sapiens, UniProt P11362); assay: Inhibition of human recombinant FGFR1
Sequence of Fibroblast growth factor receptor 1 (P11362 whole entry): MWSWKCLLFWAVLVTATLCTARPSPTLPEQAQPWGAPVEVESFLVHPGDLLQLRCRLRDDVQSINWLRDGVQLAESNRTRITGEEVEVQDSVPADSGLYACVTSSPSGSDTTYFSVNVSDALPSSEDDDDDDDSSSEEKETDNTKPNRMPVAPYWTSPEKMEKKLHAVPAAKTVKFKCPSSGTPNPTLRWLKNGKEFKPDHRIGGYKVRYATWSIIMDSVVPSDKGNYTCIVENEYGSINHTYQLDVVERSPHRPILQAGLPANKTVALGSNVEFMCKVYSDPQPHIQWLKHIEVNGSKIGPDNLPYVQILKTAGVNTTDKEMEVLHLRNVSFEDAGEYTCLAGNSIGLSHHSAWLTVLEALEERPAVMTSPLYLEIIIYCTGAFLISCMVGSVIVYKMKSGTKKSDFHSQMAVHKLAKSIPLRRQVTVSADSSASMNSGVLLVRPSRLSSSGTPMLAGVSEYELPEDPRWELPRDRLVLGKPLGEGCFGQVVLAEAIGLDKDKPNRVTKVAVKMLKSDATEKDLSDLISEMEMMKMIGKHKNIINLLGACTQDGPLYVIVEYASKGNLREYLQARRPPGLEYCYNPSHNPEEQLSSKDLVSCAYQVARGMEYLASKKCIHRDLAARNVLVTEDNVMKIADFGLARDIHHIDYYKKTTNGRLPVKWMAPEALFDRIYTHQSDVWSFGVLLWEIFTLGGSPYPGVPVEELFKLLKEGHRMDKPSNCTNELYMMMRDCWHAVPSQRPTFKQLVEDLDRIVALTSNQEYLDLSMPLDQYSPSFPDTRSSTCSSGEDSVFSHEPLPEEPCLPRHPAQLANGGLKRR

Sequence of Vascular endothelial growth factor receptor 2 (P35968 whole entry): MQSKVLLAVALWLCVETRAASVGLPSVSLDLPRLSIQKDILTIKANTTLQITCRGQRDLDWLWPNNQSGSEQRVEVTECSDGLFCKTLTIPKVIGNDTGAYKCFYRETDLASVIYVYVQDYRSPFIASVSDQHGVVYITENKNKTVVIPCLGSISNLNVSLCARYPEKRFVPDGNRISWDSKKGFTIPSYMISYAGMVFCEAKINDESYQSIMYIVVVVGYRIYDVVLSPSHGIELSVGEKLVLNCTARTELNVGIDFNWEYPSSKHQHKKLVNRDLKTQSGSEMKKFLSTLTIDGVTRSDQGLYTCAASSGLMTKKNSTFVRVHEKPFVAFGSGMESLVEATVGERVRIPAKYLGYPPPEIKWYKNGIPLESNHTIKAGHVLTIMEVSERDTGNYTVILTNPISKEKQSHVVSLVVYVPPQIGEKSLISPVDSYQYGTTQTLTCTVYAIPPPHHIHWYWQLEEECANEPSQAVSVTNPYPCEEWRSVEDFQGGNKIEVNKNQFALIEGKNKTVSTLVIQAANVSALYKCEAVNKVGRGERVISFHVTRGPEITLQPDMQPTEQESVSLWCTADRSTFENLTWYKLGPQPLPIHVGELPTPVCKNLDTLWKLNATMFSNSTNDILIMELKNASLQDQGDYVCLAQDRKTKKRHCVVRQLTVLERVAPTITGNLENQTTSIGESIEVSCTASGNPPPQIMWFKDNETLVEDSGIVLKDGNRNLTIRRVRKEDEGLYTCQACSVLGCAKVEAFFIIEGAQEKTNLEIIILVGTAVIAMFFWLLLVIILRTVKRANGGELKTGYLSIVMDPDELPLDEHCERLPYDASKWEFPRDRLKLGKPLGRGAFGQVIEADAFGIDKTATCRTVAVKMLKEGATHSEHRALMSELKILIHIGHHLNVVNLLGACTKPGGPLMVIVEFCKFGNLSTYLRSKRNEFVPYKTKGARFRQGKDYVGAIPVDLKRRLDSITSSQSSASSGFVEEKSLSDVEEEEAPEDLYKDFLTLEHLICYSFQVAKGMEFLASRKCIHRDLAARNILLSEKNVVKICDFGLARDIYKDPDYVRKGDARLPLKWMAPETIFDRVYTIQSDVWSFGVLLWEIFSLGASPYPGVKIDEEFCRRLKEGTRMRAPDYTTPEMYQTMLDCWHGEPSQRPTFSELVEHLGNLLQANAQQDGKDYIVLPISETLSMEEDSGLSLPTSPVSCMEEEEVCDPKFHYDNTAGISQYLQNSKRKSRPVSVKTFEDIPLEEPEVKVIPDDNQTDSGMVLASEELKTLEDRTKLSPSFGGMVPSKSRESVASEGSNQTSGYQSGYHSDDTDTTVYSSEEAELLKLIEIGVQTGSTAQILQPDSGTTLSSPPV
Sequence of Platelet-derived growth factor receptor beta (P09619 whole entry): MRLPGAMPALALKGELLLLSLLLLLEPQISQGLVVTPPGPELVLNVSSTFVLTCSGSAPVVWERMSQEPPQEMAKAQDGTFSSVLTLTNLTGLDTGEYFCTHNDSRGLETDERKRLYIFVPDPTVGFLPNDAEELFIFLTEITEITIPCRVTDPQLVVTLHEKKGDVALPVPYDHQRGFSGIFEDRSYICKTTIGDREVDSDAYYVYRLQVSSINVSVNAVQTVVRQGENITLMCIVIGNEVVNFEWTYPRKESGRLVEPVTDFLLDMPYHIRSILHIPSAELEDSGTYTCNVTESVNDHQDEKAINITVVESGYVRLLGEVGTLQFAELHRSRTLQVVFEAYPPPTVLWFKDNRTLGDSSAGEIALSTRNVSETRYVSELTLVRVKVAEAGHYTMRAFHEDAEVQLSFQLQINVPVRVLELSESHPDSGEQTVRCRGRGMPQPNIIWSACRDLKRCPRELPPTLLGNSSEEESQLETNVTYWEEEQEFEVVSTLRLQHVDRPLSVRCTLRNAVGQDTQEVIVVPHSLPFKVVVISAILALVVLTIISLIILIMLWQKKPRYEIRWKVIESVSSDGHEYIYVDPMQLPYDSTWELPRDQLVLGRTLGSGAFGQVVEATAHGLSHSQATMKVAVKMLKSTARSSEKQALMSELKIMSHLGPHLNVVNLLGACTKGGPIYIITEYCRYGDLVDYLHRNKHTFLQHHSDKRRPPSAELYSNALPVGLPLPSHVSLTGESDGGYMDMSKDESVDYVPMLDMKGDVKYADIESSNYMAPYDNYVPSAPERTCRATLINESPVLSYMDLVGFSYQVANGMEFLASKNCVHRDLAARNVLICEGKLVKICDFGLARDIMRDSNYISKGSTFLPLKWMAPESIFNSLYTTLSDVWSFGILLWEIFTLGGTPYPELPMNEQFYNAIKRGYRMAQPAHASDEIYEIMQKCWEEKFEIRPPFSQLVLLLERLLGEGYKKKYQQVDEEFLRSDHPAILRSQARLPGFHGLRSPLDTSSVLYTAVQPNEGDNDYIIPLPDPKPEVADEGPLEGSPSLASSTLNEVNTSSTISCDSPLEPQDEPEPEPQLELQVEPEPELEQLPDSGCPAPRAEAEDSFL

Compound	IC50 [1]	IC50 [3]	IC50 [4]	EC50 [2]
O=c1[nH]c2ccccc2cc1-c1nc2ccccc2[nH]1	1700 nM	70 nM	390 nM	240 nM
CN1CCN(c2ccc3[nH]c(-c4c(N)c5cc(NC(=O)c6ccccc6)ccc5[nH]c4=O)nc3c2)CC1	980 nM	39 nM	900 nM	
CN1CCN(c2ccc3nc(-c4c(N)c5cc(NCc6ccccc6)ccc5[nH]c4=O)[nH]c3c2)CC1	21 nM	0.6 nM	8 nM	1100 nM
CN1CCCC(Oc2cccc3[nH]c(=O)c(-c4nc5ccccc5[nH]4)c(N)c23)C1 (stereo unspecified)	5 nM	0.1 nM	1 nM	10 nM
CN1CCN(Cc2ccc3[nH]c(-c4c(N)c5ccccc5[nH]c4=O)nc3c2)CC1		2 nM	9 nM	
CN(C)CC(=O)N(C)c1ccc2[nH]c(-c3c(N)c4ccccc4[nH]c3=O)nc2c1	29 nM	1 nM	3 nM	24 nM
CCC1CCN(C)C(Nc2c(-c3nc4ccccc4[nH]3)c(=O)[nH]c3ccccc23)C1 (stereo unspecified)	170 nM	0.2 nM	190 nM	72 nM
CN(C)[C@H]1CCN(c2ccc3[nH]c(-c4c(N)c5ccccc5[nH]c4=O)nc3c2)C1	60 nM	4 nM	20 nM	42 nM
Cn1c(-c2c(O)c3ccccc3[nH]c2=O)nc2ccccc21	> 25000 nM	1100 nM	7900 nM	> 10000 nM
Cn1c(-c2c(O)c3ccccc3n(C)c2=O)nc2ccccc21	> 25000 nM	> 25000 nM	> 25000 nM	> 10000 nM

Now from value to compound, other results behind:

IC50 [1]	IC50 [3]	IC50 [4]	Compound	EC50 [2]
57 nM	5 nM	30 nM	Nc1c(-c2nc3cc(N4CCOCC4)ccc3[nH]2)c(=O)[nH]c2ccccc12	51 nM
42 nM	2 nM	9 nM	CN1CCN(c2ccc3[nH]c(-c4c(N)c5ccccc5[nH]c4=O)nc3c2)CC1	19 nM
240 nM	20 nM	90 nM	O=c1[nH]c2ccccc2c(O)c1-c1nc2ccccc2[nH]1	420 nM
58 nM	10 nM	30 nM	Nc1c(-c2nc3ccccc3[nH]2)c(=O)[nH]c2ccccc12	78 nM
1000 nM	9 nM	370 nM	CNc1ccc2c(N)c(-c3nc4ccc(N5CCN(C)CC5)cc4[nH]3)c(=O)[nH]c2c1	270 nM
6500 nM	130 nM	4100 nM	CN1CCN(c2ccc3[nH]c(=O)c(-c4nc5ccccc5[nH]4)c(N)c3c2)CC1	
160 nM	7 nM	83 nM	CN1CCN(c2ccc3[nH]c(-c4c(N)c5cc(N(C)C)ccc5[nH]c4=O)nc3c2)CC1	2000 nM
14 nM	0.3 nM	2 nM	CN1CCN(c2ccc3[nH]c(-c4c(N)c5c(Cl)cccc5[nH]c4=O)nc3c2)CC1	12 nM
12 nM	0.7 nM	3 nM	Cc1cccc2[nH]c(=O)c(-c3nc4ccc(N5CCN(C)CC5)cc4[nH]3)c(N)c12	5 nM
860 nM	70 nM	390 nM	CN(C)c1c(-c2nc3ccccc3[nH]2)c(=O)[nH]c2ccccc12	> 10000 nM

Reference: ChEMBL document CHEMBL1139379, “Design, structure-activity relationships and in vivo characterization of 4-amino-3-benzimidazol-2-ylhydroquinolin-2-ones: a novel class of receptor tyrosine kinase inhibitors” (J Med Chem, 2009)
